Measured values taken from patent publication US20240424012A1, “COMBINATIONS AND USES THEREOF” (Incyte Corporation, priority 2011, published 2024).
“And” between values parts separate entries of the source, which are not always exact repeats. Identical values can stand only once.

T1: Human CD19 (human, UniProt P15391 20-556)
T1 sequence: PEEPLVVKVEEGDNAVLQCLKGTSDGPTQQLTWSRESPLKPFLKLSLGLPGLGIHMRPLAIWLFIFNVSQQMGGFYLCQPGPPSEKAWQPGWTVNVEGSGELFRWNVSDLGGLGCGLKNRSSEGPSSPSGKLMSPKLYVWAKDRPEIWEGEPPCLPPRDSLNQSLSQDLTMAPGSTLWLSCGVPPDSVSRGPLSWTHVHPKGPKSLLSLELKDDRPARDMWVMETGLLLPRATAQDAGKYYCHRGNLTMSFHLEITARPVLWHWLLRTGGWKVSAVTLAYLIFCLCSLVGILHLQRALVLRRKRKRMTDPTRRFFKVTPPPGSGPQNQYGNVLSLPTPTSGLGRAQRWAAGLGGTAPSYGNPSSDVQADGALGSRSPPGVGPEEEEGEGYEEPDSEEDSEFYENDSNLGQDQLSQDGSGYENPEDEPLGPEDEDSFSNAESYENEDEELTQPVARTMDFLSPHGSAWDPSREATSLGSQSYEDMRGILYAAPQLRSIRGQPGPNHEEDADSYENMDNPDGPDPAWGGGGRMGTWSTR

B1: MOR208 (antibody, human IgG1, kappa, V domains shown)
VH: EVQLVESGGGLVKPGGSLKLSCAASGYTFTSYVMHWVRQAPGKGLEWIGYINPYNDGTKYNEKFQGRVTISSDKSISTAYMELSSLRSEDTAMYYCARGTYYYGTRVFDYWGQGTLVTVSS
VL: DIVMTQSPATLSLSPGERATLSCRSSKSLQNVNGNTYLYWFQQKPGQSPQLLIYRMSNLNSGVPDRFSGSGSGTEFTLTISSLEPEDFAVYYCMQHLEYPITFGAGTKLEIKR
B2: MOR208: anti-CD19 antibody; variable domains in FIG. 3, Fc regions in FIG. 4 (antibody)
heavy: EVQLVESGGGLVKPGGSLKLSCAASGYTFTSYVMHWVRQAPGKGLEWIGYINPYNDGTKYNEKFQGRVTISSDKSISTAYMELSSLRSEDTAMYYCARGTYYYGTRVFDYWGQGTLVTVSSASTKGPSVFPLAPSSKSTSGGTAALGCLVKDYFPEPVTVSWNSGALTSGVHTFPAVLQSSGLYSLSSWTVPSSSLGTQTYICNVNHKPSNTKVDKKVEPKSCDKTHTCPPCPAPELLGGPDVFLFPPKPKDTLMISRTPEVTCVVVDVSHEDPEVQFNWYVDGVEVHNAKTKPREEQFNSTFRVVSVLTVVHQDWLNGKEYKCKVSNKALPAPEEKTISKTKGQPREPQVYTLPPSREEMTKNQVSLTCLVKGFYPSDIAVEWESNGQPENNYKTTPPMLDSDGSFFLYSKLTVDKSRWQQGNVFSCSVMHEALHNHYTQKSLSLSPGK
light: DIVMTQSPATLSLSPGERATLSCRSSKSLQNVNGNTYLYWFQQKPGQSPQLLIYRMSNLNSGVPDRFSGSGSGTEFTLTISSLEPEDFAVYYCMQHLEYPITFGAGTKLEIKRTVAAPSVFIFPPSDEQLKSGTASVVCLLNNFYPREAKVQWKVDNALQSGNSQESVTEQDSKDSTYSLSSTLTLSKADYEKHKVYACEVTHQGLSSPVTKSFNRGEC

Tests used:
[1] = system: RAMOS human Burkitt's lymphoma cells; test: Subcutaneously (SC)-implanted human Ramos Burkitt's B-cell lymphoma tumor growth model; assay type: in vivo, SCID mice; details: for Increased time to 4000 mg [%] / Reduced tumor growth at study Day 38 (%): control 0; for Tumor Volume at study day 38, Average: vehicle average 4014
MEC-1 cells = test: ADCC / cytotoxicity assay: killing of MEC-1 cells by MOR208 and fludarabine alone and in combination; assay type: cell-based, human; details: for normalized specific killing: background subtracted, combination set to 1, Fludarabine 18 μg/ml, MOR208 66 pM; for % dead cells: raw data, MOR208 66 pm, FLU 18 μg/ml, 72 h pre-incubation, E:T 30:1, 4 h
[2] = system: RAMOS human lymphoma cells; assay type: in vivo, SCID mice; details: MOR208 3 mg/kg i.v. twice weekly for 3 weeks; FLU 125 mg/kg i.p. once daily Day 0-5; combination of both; vehicle 18.5
Human CD19 = target: T1, Human CD19; test: cell-based or functional assay
[3] = MOR208 10 mg/kg, FLU 125 mg/kg, combination of MOR208 and FLU 125
[4] = MOR208 10 mg/kg, Fludarabine 125 mg/kg IP Q1Dx5, combination MOR208/FLU 125
[5] = MOR208 10 mg/kg, Fludarabine 125 mg/kg, MOR208 + FLU 125 combination
[6] = Experiment 1 (PBMC donor 1), control RefMab33
[7] = Experiment 2 (PBMC donor 2), control RefMab33
[8] = Experiment 3 (PBMC donor 3), control PBMCs alone

Row | Molecule | Increased time to 4000 mg [%] [1, 3] | Reduced tumor growth at study Day 38 (%) [1, 3] | Tumor Volume at study day 38, Average [1, 4] | Increased time to 4000 mg [%], normalized to Fractional Product combination = 1 [1, 5] | Reduced tumor growth at study Day 38 (%), normalized to Fractional Product combination = 1 [1, 5] | normalized specific killing (MEC-1 cells; Average of Experiments 1-3) | % dead cells (MEC-1 cells; [6]) | normalized specific killing (MEC-1 cells; Experiment 1) | % dead cells (MEC-1 cells; [7]) | normalized specific killing (MEC-1 cells; Experiment 2) | % dead cells (MEC-1 cells; [8]) | normalized specific killing (MEC-1 cells; Experiment 3) | Median Survival Time [2] | other results
1 | Fludarabine [reference compound] | 22.37% | 48.3% | 2073 mm^3 | 0.62 | 0.75 | 0.7 | 36.39% | 0.6 | 38.48% | 0.7 | 57.27% | 0.8 | 22 days | Increased time to 4000 mg [%] ([1]; FLU 250 mg/kg): 30.19%; Reduced tumor growth at study Day 38 (%) ([1]; FLU 250 mg/kg): 64.8%; Increased time to 4000 mg [%], normalized to Fractional Product combination = 1 ([1]; Fludarabine 250 mg/kg): 0.8; Reduced tumor growth at study Day 38 (%), normalized to Fractional Product combination = 1 ([1]; Fludarabine 250 mg/kg): 0.9; Tumor Volume at study day 38, Average ([1]; Fludarabine 250 mg/kg IP Q1Dx5): 1413 mm^3; EC50 (MEC-1 cell killing) (MEC-1 cells; FLU, test concentration stated to be near or at the EC50): ~18 µg/mL
2 | B1 |  |  |  |  |  |  |  |  |  |  |  |  |  | EC50 of MEC-1 cell killing (ADCC) (Human CD19): ~0.066 nM
3 | B2 | 17.52% | 38.5% | 2468 mm^3 | 0.48 | 0.57 | 0.5 | 35.2% | 0.6 | 29.8% | 0.4 | 47.01% | 0.5 | 23.5 days | Tumor Volume at study day 38 ([1]; single values (Group 1-8), MOR208 10 mg/kg, Fludarabine 125 mg/kg IP Q1Dx5, combination MOR208/FLU 125): 1764 mm^3 and 1862 mm^3 and 3402 mm^3 and 2560 mm^3 and 2816 mm^3 and 2138 mm^3 and 2025 mm^3 and 3179 mm^3
